# Assay results: patent US12043599B2, “Herbicidal compounds” (SYNGENTA PARTICIPATIONS AG, priority 2018, dated 2024)
# How the values were obtained:
# Assay type in all cases: in vivo
# Conditions in all cases: 250 g/h, evaluated after 13 days
# Lolium perenne (LOLPE) [1] = experiment: Pre-emergence herbicidal glasshouse test, percentage damage
# In short: (§1)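 Compounds applied at 250 g/h, formulated in 50:50 acetone/water plus 0.5% Tween 20, onto potted plants one day (pre-emergence) or 8 days (post-emergence) after sowing. Scoring of damage at day 13 used a five-point scale.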
# Avena fatua (AVEFA) [2] = experiment: as above
# In short: as §1
# Setaria faberi (SETFA) [3] = experiment: as above
# In short: as §1
# [4] = test system: Alopecurus myosuroides (ALOMY); experiment: as above
# In short: as §1
# [5] = test system: Echinochloa crus-galli (ECHCG); experiment: as above
# In short: as §1
# Setaria faberi (SETFA) [6] = experiment: Post-emergence herbicidal glasshouse test, percentage damage
# In short: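 Wheat, barley and Setaria faberi were sprayed post-emergence after 8 days' growth (24/16 °C, 14 h light, 65% humidity) with compound in acetone/water (50:50) containing 0.5% Tween 20, at the indicated rates. On wheat, compounds were also applied with cloquintocet-mexyl at 50 g/ha. Damage was scored after 13 days on a five-point scale (5=80-100% to 1=0-19%).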
# Lolium perenne (LOLPE) [7] = experiment: as above
# In short: as §1
# Avena fatua (AVEFA) [8] = experiment: as above
# In short: as §1
# [9] = test system: Alopecurus myosuroides (ALOMY); experiment: as above
# In short: as §1
# [10] = test system: Echinochloa crus-galli (ECHCG); experiment: as above
# In short: as §1
compound,measurement,setting,value
CC#Cc1cc(C)c(C2C(=O)CC3(CCN(C(=O)COCCOC)CC3)CC2=O)c(C)c1 [Compound A147],LOLPE PRE percentage damage (five point scale),Lolium perenne (LOLPE) [1],5 (5=80-100%)
same,AVEFA PRE percentage damage (five point scale),Avena fatua (AVEFA) [2],3 (3=40-59%)
same,SETFA PRE percentage damage (five point scale),Setaria faberi (SETFA) [3],5 (5=80-100%)
same,ALOMY PRE percentage damage (five point scale),[4],4 (4=60-79%)
same,ECHCG PRE percentage damage (five point scale),[5],5 (5=80-100%)
same,SETFA POST percentage damage (five point scale),Setaria faberi (SETFA) [6],5 (5=80-100%)
same,LOLPE POST percentage damage (five point scale),Lolium perenne (LOLPE) [7],5 (5=80-100%)
same,AVEFA POST percentage damage (five point scale),Avena fatua (AVEFA) [8],5 (5=80-100%)
same,ALOMY POST percentage damage (five point scale),[9],5 (5=80-100%)
same,ECHCG POST percentage damage (five point scale),[10],5 (5=80-100%)
CC#Cc1cc(C)c(C2C(=O)CC3(CCN(C(=O)[C@@H]4COCCO4)CC3)CC2=O)c(C)c1 [Compound A174],LOLPE PRE percentage damage (five point scale),Lolium perenne (LOLPE) [1],5 (5=80-100%)
same,AVEFA PRE percentage damage (five point scale),Avena fatua (AVEFA) [2],5 (5=80-100%)
same,SETFA PRE percentage damage (five point scale),Setaria faberi (SETFA) [3],5 (5=80-100%)
same,ALOMY PRE percentage damage (five point scale),[4],5 (5=80-100%)
same,ECHCG PRE percentage damage (five point scale),[5],5 (5=80-100%)
same,SETFA POST percentage damage (five point scale),Setaria faberi (SETFA) [6],5 (5=80-100%)
same,LOLPE POST percentage damage (five point scale),Lolium perenne (LOLPE) [7],5 (5=80-100%)
same,AVEFA POST percentage damage (five point scale),Avena fatua (AVEFA) [8],5 (5=80-100%)
same,ALOMY POST percentage damage (five point scale),[9],5 (5=80-100%)
same,ECHCG POST percentage damage (five point scale),[10],5 (5=80-100%)
CC#Cc1cc(C)c(C2C(=O)CC3(CCN(C(=O)C4CC(C)=NO4)CC3)CC2=O)c(C)c1 (stereo not drawn) [Compound A187],LOLPE PRE percentage damage (five point scale),Lolium perenne (LOLPE) [1],5 (5=80-100%)
same,AVEFA PRE percentage damage (five point scale),Avena fatua (AVEFA) [2],5 (5=80-100%)
same,SETFA PRE percentage damage (five point scale),Setaria faberi (SETFA) [3],5 (5=80-100%)
same,ALOMY PRE percentage damage (five point scale),[4],4 (4=60-79%)
same,ECHCG PRE percentage damage (five point scale),[5],5 (5=80-100%)
same,SETFA POST percentage damage (five point scale),Setaria faberi (SETFA) [6],5 (5=80-100%)
same,LOLPE POST percentage damage (five point scale),Lolium perenne (LOLPE) [7],5 (5=80-100%)
same,AVEFA POST percentage damage (five point scale),Avena fatua (AVEFA) [8],5 (5=80-100%)
same,ALOMY POST percentage damage (five point scale),[9],5 (5=80-100%)
same,ECHCG POST percentage damage (five point scale),[10],5 (5=80-100%)
CC#Cc1cc(C)c(C2=C(OC(=O)COC)CC3(CCN(C(=O)COC)CC3)CC2=O)c(C)c1 [Compound P18],LOLPE PRE percentage damage (five point scale),Lolium perenne (LOLPE) [1],5 (5=80-100%)
same,AVEFA PRE percentage damage (five point scale),Avena fatua (AVEFA) [2],5 (5=80-100%)
same,SETFA PRE percentage damage (five point scale),Setaria faberi (SETFA) [3],5 (5=80-100%)
same,ALOMY PRE percentage damage (five point scale),[4],5 (5=80-100%)
same,ECHCG PRE percentage damage (five point scale),[5],5 (5=80-100%)
same,SETFA POST percentage damage (five point scale),Setaria faberi (SETFA) [6],5 (5=80-100%)
same,LOLPE POST percentage damage (five point scale),Lolium perenne (LOLPE) [7],5 (5=80-100%)
same,AVEFA POST percentage damage (five point scale),Avena fatua (AVEFA) [8],5 (5=80-100%)
same,ALOMY POST percentage damage (five point scale),[9],5 (5=80-100%)
same,ECHCG POST percentage damage (five point scale),[10],5 (5=80-100%)
CC#Cc1cc(C)c(C2C(=O)CC3(CCN(C(=O)c4ccncn4)CC3)CC2=O)c(C)c1 [Compound A18],LOLPE PRE percentage damage (five point scale),Lolium perenne (LOLPE) [1],5 (5=80-100%)
same,AVEFA PRE percentage damage (five point scale),Avena fatua (AVEFA) [2],5 (5=80-100%)
same,SETFA PRE percentage damage (five point scale),Setaria faberi (SETFA) [3],5 (5=80-100%)
same,ALOMY PRE percentage damage (five point scale),[4],5 (5=80-100%)
same,ECHCG PRE percentage damage (five point scale),[5],5 (5=80-100%)
same,SETFA POST percentage damage (five point scale),Setaria faberi (SETFA) [6],5 (5=80-100%)
same,LOLPE POST percentage damage (five point scale),Lolium perenne (LOLPE) [7],5 (5=80-100%)
same,AVEFA POST percentage damage (five point scale),Avena fatua (AVEFA) [8],5 (5=80-100%)
same,ALOMY POST percentage damage (five point scale),[9],5 (5=80-100%)
same,ECHCG POST percentage damage (five point scale),[10],5 (5=80-100%)
CC#Cc1cc(C)c(C2C(=O)CC3(CCN(C(=O)N(C)C(=O)C(C)(C)C)CC3)CC2=O)c(C)c1 [Compound A165],LOLPE PRE percentage damage (five point scale),Lolium perenne (LOLPE) [1],4 (4=60-79%)
same,AVEFA PRE percentage damage (five point scale),Avena fatua (AVEFA) [2],4 (4=60-79%)
same,SETFA PRE percentage damage (five point scale),Setaria faberi (SETFA) [3],5 (5=80-100%)
same,ALOMY PRE percentage damage (five point scale),[4],4 (4=60-79%)
same,ECHCG PRE percentage damage (five point scale),[5],5 (5=80-100%)
same,SETFA POST percentage damage (five point scale),Setaria faberi (SETFA) [6],5 (5=80-100%)
same,LOLPE POST percentage damage (five point scale),Lolium perenne (LOLPE) [7],5 (5=80-100%)
same,AVEFA POST percentage damage (five point scale),Avena fatua (AVEFA) [8],5 (5=80-100%)
same,ALOMY POST percentage damage (five point scale),[9],5 (5=80-100%)
same,ECHCG POST percentage damage (five point scale),[10],5 (5=80-100%)
CC#Cc1cc(C)c(C2C(=O)CC3(CCN(C(=O)NC(=O)c4ccccc4F)CC3)CC2=O)c(C)c1 [Compound A167],LOLPE PRE percentage damage (five point scale),Lolium perenne (LOLPE) [1],5 (5=80-100%)
same,AVEFA PRE percentage damage (five point scale),Avena fatua (AVEFA) [2],4 (4=60-79%)
same,SETFA PRE percentage damage (five point scale),Setaria faberi (SETFA) [3],5 (5=80-100%)
same,ALOMY PRE percentage damage (five point scale),[4],4 (4=60-79%)
same,ECHCG PRE percentage damage (five point scale),[5],5 (5=80-100%)
same,SETFA POST percentage damage (five point scale),Setaria faberi (SETFA) [6],5 (5=80-100%)
same,LOLPE POST percentage damage (five point scale),Lolium perenne (LOLPE) [7],5 (5=80-100%)
same,AVEFA POST percentage damage (five point scale),Avena fatua (AVEFA) [8],5 (5=80-100%)
same,ALOMY POST percentage damage (five point scale),[9],5 (5=80-100%)
same,ECHCG POST percentage damage (five point scale),[10],5 (5=80-100%)
CC#Cc1cc(C)c(C2=C(OC(C)=O)CC3(CCN(C(N)=O)CC3)CC2=O)c(C)c1 [Compound P9],LOLPE PRE percentage damage (five point scale),Lolium perenne (LOLPE) [1],5 (5=80-100%)
same,AVEFA PRE percentage damage (five point scale),Avena fatua (AVEFA) [2],4 (4=60-79%)
same,SETFA PRE percentage damage (five point scale),Setaria faberi (SETFA) [3],5 (5=80-100%)
same,ALOMY PRE percentage damage (five point scale),[4],5 (5=80-100%)
same,ECHCG PRE percentage damage (five point scale),[5],5 (5=80-100%)
same,SETFA POST percentage damage (five point scale),Setaria faberi (SETFA) [6],5 (5=80-100%)
same,LOLPE POST percentage damage (five point scale),Lolium perenne (LOLPE) [7],5 (5=80-100%)
same,AVEFA POST percentage damage (five point scale),Avena fatua (AVEFA) [8],5 (5=80-100%)
same,ALOMY POST percentage damage (five point scale),[9],5 (5=80-100%)
same,ECHCG POST percentage damage (five point scale),[10],5 (5=80-100%)
CC#Cc1cc(C)c(C2C(=O)CC3(CCN(C(=O)COC4CC4)CC3)CC2=O)c(C)c1 [Compound A202],LOLPE PRE percentage damage (five point scale),Lolium perenne (LOLPE) [1],5 (5=80-100%)
same,AVEFA PRE percentage damage (five point scale),Avena fatua (AVEFA) [2],5 (5=80-100%)
same,SETFA PRE percentage damage (five point scale),Setaria faberi (SETFA) [3],5 (5=80-100%)
same,ALOMY PRE percentage damage (five point scale),[4],5 (5=80-100%)
same,ECHCG PRE percentage damage (five point scale),[5],5 (5=80-100%)
same,SETFA POST percentage damage (five point scale),Setaria faberi (SETFA) [6],5 (5=80-100%)
same,LOLPE POST percentage damage (five point scale),Lolium perenne (LOLPE) [7],5 (5=80-100%)
same,AVEFA POST percentage damage (five point scale),Avena fatua (AVEFA) [8],5 (5=80-100%)
same,ALOMY POST percentage damage (five point scale),[9],5 (5=80-100%)
same,ECHCG POST percentage damage (five point scale),[10],5 (5=80-100%)
